Experimental data reported in patent publication EP0791056B1, “LIPID-CLEAVAGE ENZYME COMPLEX” (priority 1994, dated 1996).

System: Phosphodiesterase aus Schlangengift
Assay: Enzymatic cleavage of AZT-DMDOPE, detection of cleavage products by thin-layer chromatography
Format: biochemical
Settings: 10 mg AZT-DMDOPE in 0,1 M Tris, 0,5 mg enzyme, 15 h + 6 h at 37 °C

Structure (SMILES): CCCCCCCCCCCCSCC(COP(=O)(O)OC[C@H]1O[C@@H](n2cc(C)c(=O)[nH]c2=O)C[C@@H]1N=[N+]=[N-])OCCCCCCCCCC (stereo partly shown) [AZT-DMDOPE, (3'-Desoxy-3'-azidothymidin)-5'-phosphorsäure-(3-dodecyl-mercapto-2-decyloxy)-propylester]
- Fluoreszenzauslöschung DC: negativ
